What was measured:
Experiment in all cases: cell-based
Parameters in all cases: NanoBRET live-cell target engagement; % occupancy from displacement of tracer K10 on NanoLuc-kinase fusions, mean n=3
Details in all cases: HEK293, read-out: % inhibition
CDKL2 = CDKL2 (Homo sapiens, UniProt Q92772)
Outline: (§1)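 Live-cell NanoBRET target engagement: cells expressing kinase–NanoLuc fusion with tracer treated with compound 2 h at 37 °C, 5% CO2. BRET read from donor (450 nm) and acceptor (610/630 nm) emission with 20 μM extracellular NanoLuc inhibitor; % occupancy calculated relative to tracer+DMSO and zero-BRET controls.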

CLK2 = CLK2 (Homo sapiens, UniProt P49760)
Outline: as §1

DCLK3 = DCLK3 (Homo sapiens, UniProt Q9C098)
Chain of DCLK3 (Q9C098 whole entry): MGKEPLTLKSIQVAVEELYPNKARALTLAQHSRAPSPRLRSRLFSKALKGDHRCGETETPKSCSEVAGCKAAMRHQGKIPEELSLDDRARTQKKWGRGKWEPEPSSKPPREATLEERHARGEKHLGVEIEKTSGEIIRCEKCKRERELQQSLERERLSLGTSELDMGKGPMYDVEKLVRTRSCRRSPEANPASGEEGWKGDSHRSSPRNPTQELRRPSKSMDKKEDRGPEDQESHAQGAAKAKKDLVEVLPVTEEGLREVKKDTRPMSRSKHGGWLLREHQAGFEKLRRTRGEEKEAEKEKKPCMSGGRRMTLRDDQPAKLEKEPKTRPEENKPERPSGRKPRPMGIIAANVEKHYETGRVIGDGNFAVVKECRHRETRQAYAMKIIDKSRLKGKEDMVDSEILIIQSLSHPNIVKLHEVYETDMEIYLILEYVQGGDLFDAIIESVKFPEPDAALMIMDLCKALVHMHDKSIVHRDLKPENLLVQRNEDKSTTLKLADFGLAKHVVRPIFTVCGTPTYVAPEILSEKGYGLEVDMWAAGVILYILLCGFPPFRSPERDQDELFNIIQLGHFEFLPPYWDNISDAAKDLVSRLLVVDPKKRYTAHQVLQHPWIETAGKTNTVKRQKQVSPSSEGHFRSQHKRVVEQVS
Outline: as §1

ICK = target: T1, ICK (Homo sapiens, UniProt Q9UPZ9)
T1 construct: gene CILK1
Outline: as §1

MAP3K12 = MAP3K12 (Homo sapiens, UniProt Q12852)
Outline: as §1

MAPK4 = MAPK4 (Homo sapiens, UniProt P31152)
Chain of MAPK4 (P31152 whole entry): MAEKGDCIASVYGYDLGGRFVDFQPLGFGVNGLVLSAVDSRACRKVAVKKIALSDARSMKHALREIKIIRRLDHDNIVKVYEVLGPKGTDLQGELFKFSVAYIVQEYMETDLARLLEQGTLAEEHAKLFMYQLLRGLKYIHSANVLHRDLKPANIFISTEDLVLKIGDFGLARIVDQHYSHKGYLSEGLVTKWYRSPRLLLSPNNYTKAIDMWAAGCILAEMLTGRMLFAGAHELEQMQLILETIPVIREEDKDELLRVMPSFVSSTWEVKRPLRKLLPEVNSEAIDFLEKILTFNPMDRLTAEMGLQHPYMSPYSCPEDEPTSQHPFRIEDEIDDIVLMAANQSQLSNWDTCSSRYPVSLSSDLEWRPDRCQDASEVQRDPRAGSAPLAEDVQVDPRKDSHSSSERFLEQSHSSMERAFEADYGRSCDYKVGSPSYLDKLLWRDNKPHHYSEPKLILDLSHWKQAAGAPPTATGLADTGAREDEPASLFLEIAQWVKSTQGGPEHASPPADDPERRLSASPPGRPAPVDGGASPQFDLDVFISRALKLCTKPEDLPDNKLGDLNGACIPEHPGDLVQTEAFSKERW
Outline: as §1

MAPK8 = MAPK8 (Homo sapiens, UniProt P45983)
Chain of MAPK8 (P45983 whole entry): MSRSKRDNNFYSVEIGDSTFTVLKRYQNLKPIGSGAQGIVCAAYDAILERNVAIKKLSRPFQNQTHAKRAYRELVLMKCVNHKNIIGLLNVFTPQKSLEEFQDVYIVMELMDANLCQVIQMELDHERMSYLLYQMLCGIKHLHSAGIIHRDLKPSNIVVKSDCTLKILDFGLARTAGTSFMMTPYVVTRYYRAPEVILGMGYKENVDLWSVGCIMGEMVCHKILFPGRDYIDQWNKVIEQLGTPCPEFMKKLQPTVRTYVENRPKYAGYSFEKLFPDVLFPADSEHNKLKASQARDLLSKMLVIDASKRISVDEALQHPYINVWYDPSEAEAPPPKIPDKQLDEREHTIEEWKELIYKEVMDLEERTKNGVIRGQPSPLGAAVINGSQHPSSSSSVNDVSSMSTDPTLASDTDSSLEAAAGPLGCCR
Outline: as §1

MAST4 = MAST4 (Homo sapiens, UniProt O15021)
Outline: as §1

MKNK2 = MKNK2 (Homo sapiens, UniProt Q9HBH9)
Outline: as §1

MYLK3 = MYLK3 (Homo sapiens, UniProt Q32MK0)
Outline: as §1

NEK2 = NEK2 (Homo sapiens, UniProt P51955)
Outline: as §1

PLK4 = PLK4 (Homo sapiens, UniProt O00444)
Chain of PLK4 (O00444 whole entry): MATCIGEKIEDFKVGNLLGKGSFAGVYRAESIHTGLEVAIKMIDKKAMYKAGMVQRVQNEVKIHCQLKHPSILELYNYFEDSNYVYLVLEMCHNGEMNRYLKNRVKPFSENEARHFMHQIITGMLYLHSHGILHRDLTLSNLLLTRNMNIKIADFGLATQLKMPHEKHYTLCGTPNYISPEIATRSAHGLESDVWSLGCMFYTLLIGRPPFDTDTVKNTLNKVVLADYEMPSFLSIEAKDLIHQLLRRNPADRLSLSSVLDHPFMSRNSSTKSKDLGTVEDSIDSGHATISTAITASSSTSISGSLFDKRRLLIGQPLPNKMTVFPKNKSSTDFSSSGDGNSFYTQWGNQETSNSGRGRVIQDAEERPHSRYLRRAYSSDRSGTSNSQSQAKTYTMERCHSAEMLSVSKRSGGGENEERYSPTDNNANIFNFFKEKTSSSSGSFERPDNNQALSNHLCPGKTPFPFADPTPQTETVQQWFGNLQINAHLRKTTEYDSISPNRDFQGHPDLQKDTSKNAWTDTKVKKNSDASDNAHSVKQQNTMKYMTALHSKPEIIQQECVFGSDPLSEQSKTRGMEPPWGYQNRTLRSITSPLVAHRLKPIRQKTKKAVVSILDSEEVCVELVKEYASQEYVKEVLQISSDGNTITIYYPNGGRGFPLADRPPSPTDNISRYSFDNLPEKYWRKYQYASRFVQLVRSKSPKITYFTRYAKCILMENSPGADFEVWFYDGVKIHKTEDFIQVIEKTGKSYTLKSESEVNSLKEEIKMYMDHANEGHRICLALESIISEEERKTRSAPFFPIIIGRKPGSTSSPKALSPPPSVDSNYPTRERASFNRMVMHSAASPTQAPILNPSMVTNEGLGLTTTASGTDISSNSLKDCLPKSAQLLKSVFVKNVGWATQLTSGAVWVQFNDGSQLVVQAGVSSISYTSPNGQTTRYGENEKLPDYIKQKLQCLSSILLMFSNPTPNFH
Outline: as §1

PTK6 = PTK6 (Homo sapiens, UniProt Q13882)
Outline: as §1

RPS6KA1 = RPS6KA1 (Homo sapiens, UniProt Q15418)
Chain of RPS6KA1 (Q15418 whole entry): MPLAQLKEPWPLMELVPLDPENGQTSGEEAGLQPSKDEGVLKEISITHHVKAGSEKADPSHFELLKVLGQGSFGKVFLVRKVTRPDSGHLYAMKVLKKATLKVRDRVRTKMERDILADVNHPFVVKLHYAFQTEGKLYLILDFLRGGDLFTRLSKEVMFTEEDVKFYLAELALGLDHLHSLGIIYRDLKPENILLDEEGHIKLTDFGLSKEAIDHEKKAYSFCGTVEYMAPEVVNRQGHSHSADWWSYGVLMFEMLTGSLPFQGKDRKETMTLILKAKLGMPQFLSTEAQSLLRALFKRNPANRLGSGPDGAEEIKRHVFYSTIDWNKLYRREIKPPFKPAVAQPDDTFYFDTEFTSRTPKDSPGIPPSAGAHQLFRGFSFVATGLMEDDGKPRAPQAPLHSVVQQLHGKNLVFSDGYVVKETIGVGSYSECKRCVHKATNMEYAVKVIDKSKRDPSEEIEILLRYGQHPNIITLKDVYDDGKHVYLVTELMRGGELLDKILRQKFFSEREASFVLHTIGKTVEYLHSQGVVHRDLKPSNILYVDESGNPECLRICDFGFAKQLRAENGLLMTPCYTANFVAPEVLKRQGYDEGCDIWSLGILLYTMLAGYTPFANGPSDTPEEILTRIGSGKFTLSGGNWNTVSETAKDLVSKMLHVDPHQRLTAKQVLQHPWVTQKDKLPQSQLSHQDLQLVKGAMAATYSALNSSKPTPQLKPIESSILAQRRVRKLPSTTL
Outline: as §1

RPS6KA2 = RPS6KA2 (Homo sapiens, UniProt Q15349)
Outline: as §1

SLK = SLK (Homo sapiens, UniProt Q9H2G2)
Chain of SLK (Q9H2G2 whole entry): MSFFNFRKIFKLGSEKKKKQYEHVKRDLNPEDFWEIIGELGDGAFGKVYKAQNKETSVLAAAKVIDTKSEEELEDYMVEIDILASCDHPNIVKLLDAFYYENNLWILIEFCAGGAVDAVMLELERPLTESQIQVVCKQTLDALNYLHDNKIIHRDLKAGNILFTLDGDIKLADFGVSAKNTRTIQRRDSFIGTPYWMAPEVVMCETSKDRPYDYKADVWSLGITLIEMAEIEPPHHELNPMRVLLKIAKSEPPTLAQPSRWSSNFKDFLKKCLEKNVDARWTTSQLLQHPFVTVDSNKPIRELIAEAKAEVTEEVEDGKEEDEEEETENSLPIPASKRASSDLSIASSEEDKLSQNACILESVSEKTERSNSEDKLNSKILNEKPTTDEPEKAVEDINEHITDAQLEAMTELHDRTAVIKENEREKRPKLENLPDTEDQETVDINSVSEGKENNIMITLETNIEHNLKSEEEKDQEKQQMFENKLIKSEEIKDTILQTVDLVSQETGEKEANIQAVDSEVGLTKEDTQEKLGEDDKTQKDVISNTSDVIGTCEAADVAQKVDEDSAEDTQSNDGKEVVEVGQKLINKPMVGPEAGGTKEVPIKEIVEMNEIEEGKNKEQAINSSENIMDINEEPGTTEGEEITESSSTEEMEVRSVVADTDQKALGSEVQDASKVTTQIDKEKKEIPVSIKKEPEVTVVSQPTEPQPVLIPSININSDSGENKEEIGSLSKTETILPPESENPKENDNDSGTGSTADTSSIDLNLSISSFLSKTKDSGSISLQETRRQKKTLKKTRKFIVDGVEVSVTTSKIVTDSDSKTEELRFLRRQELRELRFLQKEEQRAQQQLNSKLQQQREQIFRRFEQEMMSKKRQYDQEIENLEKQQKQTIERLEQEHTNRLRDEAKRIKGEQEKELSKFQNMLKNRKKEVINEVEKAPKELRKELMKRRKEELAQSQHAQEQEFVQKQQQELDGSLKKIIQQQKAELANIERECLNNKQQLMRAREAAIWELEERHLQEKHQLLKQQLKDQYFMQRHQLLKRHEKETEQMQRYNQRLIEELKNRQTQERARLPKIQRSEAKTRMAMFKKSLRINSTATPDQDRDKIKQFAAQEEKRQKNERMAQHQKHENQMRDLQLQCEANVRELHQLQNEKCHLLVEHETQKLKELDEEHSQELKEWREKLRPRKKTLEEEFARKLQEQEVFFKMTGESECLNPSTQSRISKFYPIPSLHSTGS
Outline: as §1

TXK = TXK (Homo sapiens, UniProt P42681)
Outline: as §1

ULK3 = ULK3 (Homo sapiens, UniProt Q6PHR2)
Chain of ULK3 (Q6PHR2 whole entry): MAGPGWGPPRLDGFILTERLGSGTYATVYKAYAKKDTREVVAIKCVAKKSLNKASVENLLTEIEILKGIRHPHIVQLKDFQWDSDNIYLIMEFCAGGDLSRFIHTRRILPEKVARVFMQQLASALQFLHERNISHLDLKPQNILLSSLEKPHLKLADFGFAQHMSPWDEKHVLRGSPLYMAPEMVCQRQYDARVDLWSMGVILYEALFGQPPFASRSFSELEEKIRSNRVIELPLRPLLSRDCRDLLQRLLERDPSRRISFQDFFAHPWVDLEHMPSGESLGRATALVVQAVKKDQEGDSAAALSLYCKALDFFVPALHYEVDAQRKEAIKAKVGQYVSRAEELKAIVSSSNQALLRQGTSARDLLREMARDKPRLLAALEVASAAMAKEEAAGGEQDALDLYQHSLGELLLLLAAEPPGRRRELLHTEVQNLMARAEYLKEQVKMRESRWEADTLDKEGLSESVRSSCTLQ
Outline: as §1

inhibition at 1 µM (CDKL2): 21%
inhibition at 1 µM (CLK2): 1%
inhibition at 1 µM (DCLK3): 0%
inhibition at 1 µM (ICK): 3%
inhibition at 1 µM (MAP3K12): 12%
inhibition at 1 µM (MAPK4): -12%
inhibition at 1 µM (MAPK8): -16%
inhibition at 1 µM (MAST4): 6%
inhibition at 1 µM (MKNK2): 1%
inhibition at 1 µM (MYLK3): -8%
inhibition at 1 µM (NEK2): 6%
inhibition at 1 µM (PLK4): 4%
inhibition at 1 µM (PTK6): -2%
inhibition at 1 µM (RPS6KA1): -6%
inhibition at 1 µM (RPS6KA2): -7%
inhibition at 1 µM (SLK): 36%
inhibition at 1 µM (TXK): 18%
inhibition at 1 µM (ULK3): 2%
SMILES: C[C@@H](Oc1cc(-c2cnn(C3CCNCC3)c2)cnc1N)c1c(Cl)ccc(F)c1Cl [crizotinib]

Source: PMC8449129, “Single tracer-based protocol for broad-spectrum kinase profiling in live cells with NanoBRET” (STAR Protocols, 2021)
